Molecules are shown by their SMILES. Activity calls are given as the source filed them. No cut-off for these calls is given here.

The term IC50 denotes the point on the concentration scale where inhibition reaches its midpoint.

Data set [1] deals with HeLa. As to the kind of experiment: Induction of apoptosis in human HeLa cells assessed as late apoptotic cells at 0.3125 uM incubated for 36 hrs by Annexin V-FITC/PI staining based flow cytometric analysis (reference value: 1.4 %). The class given is functional.
Data set [2] relates to HeLa. As to the kind of experiment: Induction of apoptosis in human HeLa cells assessed as viable cells at 0.625 uM incubated for 36 hrs by Annexin V-FITC/PI staining based flow cytometric analysis (reference value: 96.14 %). The class given is functional. Particulars: read-out: Activity. For orientation: A flow cytometer gives signals particle by particle.
Data set [3] has as its system HeLa. In words: Induction of apoptosis in human HeLa cells assessed as late apoptotic cells at 1.25 uM incubated for 36 hrs by Annexin V-FITC/PI staining based flow cytometric analysis (reference value: 1.4 %). The class given is functional.
The nature of data set [4]: Volume of distribution at steady state in Sprague-Dawley rat at 1 mg/kg, iv measured for 24 hrs by LC-MS/MS analysis. The data set is classed as ADME, organism-based. As to conditions: in vivo, read-out: Vdss.
In another data set the test system is SW-620. In words: Antitumor activity against human SW620 cells xenografted in BALB/c nude mouse assessed as tumor growth inhibition at 30 mg/kg, IG administered daily for 30 days and measured every 2 days relative to control. The data set is classed as functional. Particulars: SW-620, po, 720 h, time 30 day, read-out: TGI.
A short description of data set [5]: Toxicity in BALB/c nude mouse xenografted with human SW620 cells assessed as lethality at 15 to 60 mg/kg, IG administered daily for 30 days and measured every 2 days. The data set is classed as organism-based, SW-620. As to conditions: in vivo, po, 720 h, dose 15-60 mg/kg, time 30 day.
A further data set deals with Mus musculus. In words: In vivo inhibition of PI3K/mTOR signalling pathway in BALB/c nude mouse xenografted with human HeLa cells assessed as downregulation of Akt phosphorylation at Ser473 residue in tumor at 15 to 60 mg/kg, IG administered daily for 30 days. The class given is functional, organism-based. As to conditions: dose 15-60 mg/kg, time 30.0 day. (In general: In xenograft studies the graft and the host belong to different species.)

The target of data set [6] is Serine/threonine-protein kinase mTOR (Rattus norvegicus, UniProt P42346). In words: Inhibition of rat brain mTOR using GST-p70S6K fusion protein as substrate preincubated for 30 mins followed by ATP addition and measured after 30 mins by K-Lisa assay. The class given is tissue-based.

On to `Cc1nc2cnc3ccc(-c4cnc5[nH]ccc5c4)cc3c2n1-c1ccc(C(C)(C)C#N)nc1`, for which the Activity in the data set with HeLa [1] is 3%; with HeLa [3], 23.32%; in data set [5], “Non-Toxic”. In addition, in the data set on HeLa [2], the viability at 0.625 µM was found to be 70.1%. In data set [4], the Vd amounted to 1.53 L/kg. Besides, the inhibition in vivo at 30 mg/kg with SW-620 worked out at 70.8%. In the data set with Mus musculus, the inhibition entry is “Active”. The IC50 in data set [6] was 20.7 nM.

(Values after ChEMBL document CHEMBL5108059, “Discovery of 2-Methyl-2-(4-(2-methyl-8-(1H-pyrrolo[2,3-b]pyridin-6-yl)-1H-naphtho[1,2-d]imidazol-1-yl)phenyl)propanenitrile as a Novel PI3K/mTOR Inhibitor with Enhanced Antitumor Efficacy In Vitro and In Vivo” (J Med Chem, 2022).)
